According to patent US20210260051A1, “COMBINATION OF EZH2 INHIBITOR AND CHECKPOINT THERAPY FOR THE TREATMENT OF CANCER” (Board of Regents, The University of Texas System, priority 2018, published 2021):

Test system: MB49 tumor
Assay: MB49 tumor-bearing Rag1-/- mice
Type: in vivo, mouse
Conditions: compared with the untreated group
From the text: FIGS. 3A-3F: Blocking expression of EZH2 mediated by anti-CTLA-4 using CPI-1205 increases the effectiveness of anti-CTLA-4 therapy. Tumor growth (FIG. 3A), survival (FIG. 3B) and percentages of intra-tumoral CD4^+CD25^+FoxP3^+ regulatory T cells, CD4^+ICOS^+T-bet^+ and CD8^+IFNγ^+ cells (FIG. 3C) in MB49 tumor-bearing mice treated with vehicle, anti CTLA-4, CPI-1205, or the combination. Tumor growth (FIG. 3D) and percentages of CD4^+IFNγ^+ cells and CD8^+TNFα^+ cells in the lymph nodes (LN) (FIG. 3E) of MB49 tumor-bearing Ezh2^fl/+ and FoxP3^CreEzh2^fl/fl mice treated with anti-CTLA-4 on days 7 and 9. (FIG. 3F) Tumor growth and survival of MB49 tumor-bearing Rag-1^−/− mice treated with vehicle or CPI-1205. Data are representative of three independent experiments (n=10 in each group; one-way ANOVA was used to determine significance between the groups. **p<0.01).
To determine whether the anti-tumoral effect of combination therapy is exclusively due to effector immune response or is an additive effect of CPI-1205 on tumor cells, Rag 1^−/− C57BL/6 mice were used, which have no mature lymphocyte population. MB49 tumor-bearing Ragl^−/− mice were treated with CPI-1205.
Mice. C57BL/6 (5-7 weeks) mice were purchased from the National Cancer Institute (Frederick, Md.). […]

## COc1cc(C)[nH]c(=O)c1CNC(=O)c1c(C)n([C@H](C)C2CCN(CC(F)(F)F)CC2)c2ccccc12 [CPI-1205, N-[(4-methoxy-6-methyl-2-oxo-1H-pyridin-3-yl)methyl]-2-methyl-1-[(1R)-1-[1-(2,2,2-trifluoroethyl)piperidin-4-yl]ethyl]indole-3-carboxamide]
  survival: No significant difference
  tumor growth: No significant difference
